{"source": "patent US20060122095A1", "about": "“Mucus formulation for mucosal surfaces and uses thereof” (priority 2002, published 2006)", "origin": "cited, not measured here", "key": {"[1]": {"system": "HIV-1", "details": "previous evaluations of UC-781 formulations"}, "[2]": {"details": "multiple routes of administration, different species of animals"}, "[3]": {"system": "HIV-1", "details": "after complete washing away of unbound drug"}, "[4]": {"system": "different cell types in culture", "details": "even at extremely high concentrations"}, "[5]": {"system": "HIV-1"}}, "note": "Entries after “also recorded” stand apart in the source; their conditions may differ.", "data": [{"smiles": "CC(C)=CCOc1cc(NC(=S)c2ccoc2C)ccc1Cl", "note": "[UC-781, N-[4-chloro-3-(3-methyl-2-butenyloxy)phenyl]]", "values": [{"measurement": "activity in explant model", "setting": "[1]", "result": "remained active"}, {"measurement": "bioavailability", "setting": "[2]", "result": "poor bioavailability"}, {"measurement": "resistance of pre-treated cells to infection (memory effect)", "setting": "[3]", "result": "remained resistant to infection for several days"}, {"measurement": "toxic effect on cells in culture", "setting": "[4]", "result": "no toxic effect"}, {"measurement": "effectiveness against strains of HIV-1 that encode known NNRTI resistance mutations", "setting": "[5]; compared with wild type isolates", "result": "equally effective"}, {"measurement": "HIV-1 inhibition effect, inactivating concentration", "setting": "[5]; primary wild type isolates of clades A through G, in vitro", "result": "nanomolar range; also recorded: nanomolar concentrations"}, {"measurement": "solubility in water", "result": "limited solubility in water"}]}]}
